Laboratory results taken from US20210139943A1, “MEDIUM AND PROCESS FOR THE CULTURE AND SELECTIVE ISOLATION OF THE BACTERIUM ENTEROCOCCUS HIRAE” (FONDATION MEDITERRANEE INFECTION, priority 2017, published 2021).

Legend:
E. hirae [1] = test: Determination of sugar: colour change on medium with indicator dye; assay type: cell-based, Enterococcus hirae; details: sugar in medium with bromocresol purple indicator dye
Description: (§1) To detect the consumption of sugar by bacteria, the inventors added to the medium of the present invention an indicator dye whose colour will vary according to the pH of the medium. Indeed, when the bacteria consume sugar, there is an acidification of the medium, which leads to a change in the indicator dye. To determine the most appropriate indicator dyer, the inventors tested several, including the following three: phenol red, bromocresol green and bromocresol purple. Based on concentrations in media already containing one of these indicator dyes, the inventors first chose to test a concentration of 25 mg/L [12] for each of the chosen indicators.
(§2) Once the indicator dye was chosen, the inventors were able to determine which sugar was most suitable for the present invention.
(§3) Finally, the last sugar tested was mannitol. […] The inventors therefore chose mannitol as sugar for the formulation of said invention, at a concentration of 10 g/L, a concentration frequently found in culture media.

E. faecalis [2] = test: as above; assay type: cell-based, Enterococcus faecalis; details: sugar in medium with bromocresol purple indicator dye
Description: as §1, §2, §3

E. faecium [3] = test: as above; assay type: cell-based, Enterococcus faecium; details: sugar in medium with bromocresol purple indicator dye
Description: as §1, §2
This sugar cannot therefore be used to isolate E. hirae.
as §3

Enterococcus faecium = system: Enterococcus faecium; set-up: key: Variable refers to the fact that consumption of this sugar by E. faecium is strain dependent; details: Table 1, literature data; cited from earlier work
[4] = Dilution of nalidixic acid in water; assay type: physicochemical
Protocol: In addition, the concentration of nalidixic acid was reduced from 250 mg/L to no more than 100 mg/L due to its poor dilution in water above 100 mg/L and colistin, a polypeptide antibiotic of the polymyxin family with action on Gram-negative bacteria, was added at a concentration of 25 mg/L to compensate.

E. hirae [5] = test: Growth on media with different salt concentrations; assay type: cell-based, Enterococcus hirae
Protocol: (§4) Since enterococci are resistant to high salt concentrations, in order to eliminate some Gram-positive bacteria other than enterococci and Gram-negative bacteria resistant to the inhibitors mentioned above, different concentrations of salt (sodium chloride) were tested to find the most appropriate one to add to the formulation of the present invention. Four concentrations were tested (60 g/L, 65 g/L, 70 g/L and 75 g/L).

E. faecium [6] = test: Growth on media with different salt concentrations; assay type: cell-based, Enterococcus faecium; details: 60 g/L, 65 g/L, 70 g/L and 75 g/L salt
Protocol: as §4

E. faecalis [7] = test: Growth on media with different salt concentrations; assay type: cell-based, Enterococcus faecalis; details: 60 g/L, 65 g/L, 70 g/L and 75 g/L salt
Protocol: as §4

OC[C@@H](O)[C@@H](O)[C@H](O)[C@H](O)CO [Mannitol, mannitol]
Colour change of E. hirae colonies (E. hirae [1]): remained colourless
Colour change of E. faecalis colonies (E. faecalis [2]): change in the colour of the medium and the colonies
Colour change of E. faecium colonies (E. faecium [3]): change in the colour of the medium and the colonies

OC[C@H]1O[C@H](OCC2O[C@@H](O)[C@H](O)[C@@H](O)[C@@H]2O)[C@H](O)[C@@H](O)[C@H]1O (stereo partly drawn) [Melibiose, melibiose]
Colour change of E. faecium colonies (E. faecium [3]): variable results
Sugar consumption by Enterococcus faecium (Enterococcus faecium): V

OC[C@H]1O[C@H](OC[C@H]2O[C@H](O[C@]3(CO)O[C@H](CO)[C@@H](O)[C@@H]3O)[C@H](O)[C@@H](O)[C@@H]2O)[C@H](O)[C@@H](O)[C@H]1O [Raffinose, raffinose]
Colour change of E. faecalis colonies (E. faecalis [2]): no colour change
Colour change of E. faecium colonies (E. faecium [3]): no colour change

CCn1cc(C(=O)O)c(=O)c2ccc(C)nc21 [nalidixic acid]
Dilution in water (poor above this concentration) [4]: no more than 100 mg/L

[Cl-].[Na+] [sodium chloride]
Growth of E. hirae (E. hirae [5]; 60 g/L, 65 g/L, 70 g/L and 75 g/L salt): had growth for each of the concentrations tested
Size of E. hirae colonies (E. hirae [5]; reading the agars at 24 hours, 60 to 75 g/L salt): the higher the salt concentrations, the smaller the colonies
Growth of E. faecium (E. faecium [6]): had growth for each of the concentrations tested
Growth of E. faecalis (E. faecalis [7]): had growth for each of the concentrations tested
